Results on 34 molecules are retold here after patent US11414395B2, “Heterocyclic compounds as modulators of mGluR7” (PRAGMA Therapeutics, priority 2017, dated 2022).

As a reminder, the IC50 is the concentration needed to halve the response being measured. A lower IC50 goes with inhibition by little substance.

This experiment addresses human mGluR7 (Homo sapiens (Human), UniProt Q14831). The experiment can be described thus: Inositol monophosphate production assay (IP1 assay), inhibition of L-AP4 response. The experiment is classed as cell-based. The conditions noted are these: mean IC50 from at least two independent experiments; HEK293 cells transiently transfected with mGluR7, Gqtop and EAAC1; IP1 production vs EC80 L-AP4. The source says: Inositol Monophosphate Production Assay (IP1 Assay):
HEK293 cells were transiently transfected with mGluR7 by electroporation and seeded in a poly-ornithine coated 96-well plate at the density of 150 000 cells/well. To allow the monitoring of receptor activity through measurements of inositol monophosphate (IP1) production, mGluR7 was transfected with a chimeric Gq/Gi protein (Gqtop). and was also co-transfected with EAAC1, a glutamate transporter, to avoid influence of extracellular glutamate. Cells were cultured in Dulbecco's Modified Eagle Medium (DMEM, Invitrogen, Cergy Pontoise, France), supplemented with 10% of Fetal Bovine Serum (FBS). Medium was changed by Glutamax™ (Invitrogen, Cergy Pontoise, France) to reduce extracellular glutamate concentration 3 hours before stimulation
IP1 production was determined using the IP-One HTRF kit (CisBio Bioassays), a competitive immunoassay using cryptate-labeled anti-IP1 antibody and d2-labeled IP, according to the manufacturer's recommendations. All points were realized in triplicate.
Data were analyzed with Prism 6 software (GraphPadSoftware, San Diego, Calif.). Typically, in each experiment, a four-parameter concentration-response curve equation was used to fit data and potency (IC50) is estimated as logarithms (log IC50). Data were calculated as % of the control mGluR7 agonist L-AP4 response, defined as the response that is generated upon addition of an EC80-equivalent concentration of L-AP4.
The Table 2 below represents the mean IC50 obtained from at least two independent experiments.

human mGluR7, sequence (Q14831 35-915): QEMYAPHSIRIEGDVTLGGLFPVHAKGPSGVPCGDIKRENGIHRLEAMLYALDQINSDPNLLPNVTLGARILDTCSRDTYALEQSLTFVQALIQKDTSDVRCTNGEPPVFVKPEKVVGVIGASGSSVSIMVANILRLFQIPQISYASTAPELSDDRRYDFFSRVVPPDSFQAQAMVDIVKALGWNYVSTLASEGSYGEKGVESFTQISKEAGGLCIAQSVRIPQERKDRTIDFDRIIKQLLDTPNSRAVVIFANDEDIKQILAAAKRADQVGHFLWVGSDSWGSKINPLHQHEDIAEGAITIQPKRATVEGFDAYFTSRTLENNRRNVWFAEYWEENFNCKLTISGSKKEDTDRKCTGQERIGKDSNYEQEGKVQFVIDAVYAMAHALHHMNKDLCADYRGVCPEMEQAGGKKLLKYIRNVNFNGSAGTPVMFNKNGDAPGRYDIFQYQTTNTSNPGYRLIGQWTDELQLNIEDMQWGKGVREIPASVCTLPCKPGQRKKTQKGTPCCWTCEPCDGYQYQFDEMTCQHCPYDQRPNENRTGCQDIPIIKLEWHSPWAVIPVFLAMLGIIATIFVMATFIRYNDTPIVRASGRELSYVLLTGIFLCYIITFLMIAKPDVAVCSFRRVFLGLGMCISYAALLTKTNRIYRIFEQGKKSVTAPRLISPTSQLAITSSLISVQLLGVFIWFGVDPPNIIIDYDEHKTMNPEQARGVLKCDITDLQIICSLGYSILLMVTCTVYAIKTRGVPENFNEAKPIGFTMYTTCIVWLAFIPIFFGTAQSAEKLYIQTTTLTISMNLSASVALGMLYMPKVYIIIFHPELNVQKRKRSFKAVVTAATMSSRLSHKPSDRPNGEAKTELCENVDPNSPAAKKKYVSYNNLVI

On to `Cc1ccc(C2CCc3c(cnn(-c4cccc(C#N)n4)c3=O)C2)c(C)c1` (stereo not shown) [Example 21, 6-(6-(2,4-dimethylphenyl)-1-oxo-5,6,7,8-tetrahydrophthalazin-2(1H)-yl)picolinonitrile], for which the IC50 was less than 500 nM.
In turn, `Cc1ccc(C2CCc3c(cnn(-c4ccc(C#N)cn4)c3=O)C2)c(C)c1` (stereo not shown) [Example 22, 6-(6-(2,4-dimethylphenyl)-1-oxo-5,6,7,8-tetrahydrophthalazin-2(1H)-yl)nicotinonitrile] displayed an IC50 of less than 500 nM.
To `Cc1ccc(C2CCc3c(cnn(-c4cc(C#N)ccn4)c3=O)C2)c(C)c1` (stereo not shown) [Example 23, 2-(6-(2,4-dimethylphenyl)-1-oxo-5,6,7,8-tetrahydrophthalazin-2(1H)-yl)isonicotinonitrile] belongs less than 500 nM; to `Cc1ccc(C2CCc3c(cnn(-c4ncccc4C#N)c3=O)C2)c(C)c1` (stereo not shown) [Example 24, 2-(6-(2,4-dimethylphenyl)-1-oxo-5,6,7,8-tetrahydrophthalazin-2(1H)-yl)nicotinonitrile], less than 500 nM; to `Cc1ccc(C2CCc3c(cnn(-c4ccc(O)cn4)c3=O)C2)c(C)c1` (stereo not shown) [Example 25, 6-(2,4-dimethylphenyl)-2-(5-hydroxypyridin-2-yl)-5,6,7,8-tetrahydrophthalazin-1(2H)-one], less than 500 nM.
On to `Cc1ccc(C2CCc3c(cnn(-c4cc(O)ccn4)c3=O)C2)c(C)c1` (stereo not shown) [Example 26, 6-(2,4-dimethylphenyl)-2-(4-hydroxypyridin-2-yl)-5,6,7,8-tetrahydrophthalazin-1(2H)-one], for which the IC50 was less than 500 nM.
Molecule `COCc1ccc(-n2ncc3c(c2=O)CCC(c2ccc(C)cc2C)C3)nc1` (stereo not shown) [Example 27, 6-(2,4-dimethylphenyl)-2-(5-(methoxymethyl)pyridin-2-yl)-5,6,7,8-tetrahydrophthalazin-1(2H)-one] came in with an IC50 of less than 500 nM.
To `Cc1ccc(C2CCc3c(cnn(-c4cccnc4)c3=O)C2)c(C)c1` (stereo not shown) [Example 28, 6-(2,4-dimethylphenyl)-2-(pyridin-3-yl)-5,6,7,8-tetrahydrophthalazin-1(2H)-one] belongs less than 500 nM.
To `Cc1ccc(C2CCc3c(cnn(-c4ncccn4)c3=O)C2)c(C)c1` (stereo not shown) [Example 29, 6-(2,4-dimethylphenyl)-2-(pyrimidin-2-yl)-5,6,7,8-tetrahydrophthalazin-1(2H)-one] belongs less than 500 nM; to `Cc1ccc(C2CCc3c(cnn(-c4cnccn4)c3=O)C2)c(C)c1` (stereo not shown) [Example 30, 6-(2,4-dimethylphenyl)-2-(pyrazin-2-yl)-5,6,7,8-tetrahydrophthalazin-1(2H)-one], less than 500 nM.
With `Cc1ccc(C2CCc3c(cnn(-c4nccs4)c3=O)C2)c(C)c1` (stereo not shown) [Example 32, 6-(2,4-dimethylphenyl)-2-(thiazol-2-yl)-5,6,7,8-tetrahydrophthalazin-1(2H)-one] the figure was 500 to 1000 nM; with `Cc1ccc(C2CCc3c(cnn(-c4cscn4)c3=O)C2)c(C)c1` (stereo not shown) [Example 33, 6-(2,4-dimethylphenyl)-2-(thiazol-4-yl)-5,6,7,8-tetrahydrophthalazin-1(2H)-one], less than 500 nM; with `Cc1ccc(C2CCc3c(cnn(-c4cn(C)cn4)c3=O)C2)c(C)c1` (stereo not shown) [Example 34, 6-(2,4-dimethylphenyl)-2-(1-methyl-1H-imidazol-4-yl)-5,6,7,8-tetrahydrophthalazin-1(2H)-one], 1000 to 30000 nM.
`COc1ccnc(-n2ncc3c(c2=O)CCC(c2ccc(C)cc2C)C3)n1` (stereo not shown) [Example 35, 6-(2,4-dimethylphenyl)-2-(4-methoxypyrimidin-2-yl)-5,6,7,8-tetrahydrophthalazin-1(2H)-one] yielded an IC50 of less than 500 nM.
With `Cc1ccc(C2CCc3c(cnn(-c4nc(C)cc(C)n4)c3=O)C2)c(C)c1` (stereo not shown) [Example 36, 6-(2,4-dimethylphenyl)-2-(4,6-dimethylpyrimidin-2-yl)-5,6,7,8-tetrahydrophthalazin-1(2H)-one] the figure was 1000 to 30000 nM; with `Cc1ccc(C2CCc3c(cnn(-c4nccc(C5CC5)n4)c3=O)C2)c(C)c1` (stereo not shown) [Example 37, 2-(4-cyclopropylpyrimidin-2-yl)-6-(2,4-dimethylphenyl)-5,6,7,8-tetrahydrophthalazin-1(2H)-one], less than 500 nM.
To `COc1cccc(C2CCc3c(cnn(-c4ccc(O)cn4)c3=O)C2)c1C` (stereo not shown) [Example 38, 2-(5-hydroxypyridin-2-yl)-6-(3-methoxy-2-methylphenyl)-5,6,7,8-tetrahydrophthalazin-1(2H)-one] belongs less than 500 nM; to `COc1cccc(C2CCc3c(cnn(-c4ccc(CO)cn4)c3=O)C2)c1C` (stereo not shown) [Example 39, 2-(5-(hydroxymethyl)pyridin-2-yl)-6-(3-methoxy-2-methylphenyl)-5,6,7,8-tetrahydrophthalazin-1(2H)-one], less than 500 nM.
`COc1cccc(C2CCc3c(cnn(-c4ncccn4)c3=O)C2)c1C` (stereo not shown) [Example 40, 6-(3-methoxy-2-methylphenyl)-2-(pyrimidin-2-yl)-5,6,7,8-tetrahydrophthalazin-1(2H)-one] came in with an IC50 of less than 500 nM.
`COc1cccc(C2CCc3c(cnn(-c4ncc(C)cn4)c3=O)C2)c1C` (stereo not shown) [Example 41, 6-(3-methoxy-2-methylphenyl)-2-(5-methylpyrimidin-2-yl)-5,6,7,8-tetrahydrophthalazin-1(2H)-one]: the IC50 was less than 500 nM.
`COc1ccnc(-n2ncc3c(c2=O)CCC(c2cccc(OC)c2C)C3)n1` (stereo not shown) [Example 42, 6-(3-methoxy-2-methylphenyl)-2-(4-methoxypyrimidin-2-yl)-5,6,7,8-tetrahydrophthalazin-1(2H)-one] returned an IC50 of less than 500 nM.
As to `COc1cccc(C2CCc3c(cnn(-c4ncc(Cl)cn4)c3=O)C2)c1C` (stereo not shown) [Example 43, 2-(5-chloropyrimidin-2-yl)-6-(3-methoxy-2-methylphenyl)-5,6,7,8-tetrahydrophthalazin-1(2H)-one], the IC50 was less than 500 nM.
Take `COc1cnc(-n2ncc3c(c2=O)CCC(c2cccc(OC)c2C)C3)cn1` (stereo not shown) [Example 44, 6-(3-methoxy-2-methylphenyl)-2-(5-methoxypyrazin-2-yl)-5,6,7,8-tetrahydrophthalazin-1(2H)-one]: the IC50 was less than 500 nM.
With `COc1cccc(C2CCc3c(cnn(-c4ncc(O)cn4)c3=O)C2)c1C` (stereo not shown) [Example 45, 2-(5-hydroxypyrimidin-2-yl)-6-(3-methoxy-2-methylphenyl)-5,6,7,8-tetrahydrophthalazin-1(2H)-one], the IC50 is less than 500 nM.
In turn, `COc1cccc(C2CCc3c(cnn(-c4nccc(N5CCOCC5)n4)c3=O)C2)c1C` (stereo not shown) [Example 46, 6-(3-methoxy-2-methylphenyl)-2-(4-morpholinopyrimidin-2-yl)-5,6,7,8-tetrahydrophthalazin-1(2H)-one] yielded a concentration for half-maximal inhibition (IC50) of less than 500 nM.
Take `COc1ccc(C)c(C2CCc3c(cnn(-c4ncc(C)cn4)c3=O)C2)c1` (stereo not shown) [Example 47, 6-(5-methoxy-2-methylphenyl)-2-(5-methylpyrimidin-2-yl)-5,6,7,8-tetrahydrophthalazin-1(2H)-one]: the 50% inhibitory concentration (IC50) is less than 500 nM.
With `COc1cnc(-n2ncc3c(c2=O)CCC(c2cc(OC)ccc2C)C3)nc1` (stereo not shown) [Example 48, 6-(5-methoxy-2-methylphenyl)-2-(5-methoxypyrimidin-2-yl)-5,6,7,8-tetrahydrophthalazin-1(2H)-one] the figure was 500 to 1000 nM; with `COc1ccc(C)c(C2CCc3c(cnn(-c4ncc(Cl)cn4)c3=O)C2)c1` (stereo not shown) [Example 49, 2-(5-chloropyrimidin-2-yl)-6-(5-methoxy-2-methylphenyl)-5,6,7,8-tetrahydrophthalazin-1(2H)-one], less than 500 nM; with `Cc1ccc(C2CCc3c(cnn(-c4ccncc4)c3=O)C2)c(C)c1` (stereo not shown) [Example 50, 6-(2,4-dimethylphenyl)-2-(pyridin-4-yl)-5,6,7,8-tetrahydrophthalazin-1(2H)-one], less than 500 nM.
In turn, `Cc1ccc(C2CCc3c(cnn(-c4ncc(Cl)cn4)c3=O)C2)c(C)c1` (stereo not shown) [Example 51, 2-(5-chloropyrimidin-2-yl)-6-(2,4-dimethylphenyl)-5,6,7,8-tetrahydrophthalazin-1(2H)-one] came in with an IC50 of less than 500 nM.
As for `Cc1cnc(-n2ncc3c(c2=O)CCC(c2ccc(C)cc2C)C3)nc1` (stereo not shown) [Example 52, 6-(2,4-dimethylphenyl)-2-(5-methylpyrimidin-2-yl)-5,6,7,8-tetrahydrophthalazin-1(2H)-one], the IC50 is less than 500 nM.
For the molecule `COc1cnc(-n2ncc3c(c2=O)CCC(c2ccc(C)cc2C)C3)nc1` (stereo not shown) [Example 53, 6-(2,4-dimethylphenyl)-2-(5-methoxypyrimidin-2-yl)-5,6,7,8-tetrahydrophthalazin-1(2H)-one], the IC50 is less than 500 nM.
With `Cc1ccc(C2CCc3c(cnn(-c4ncc(F)cn4)c3=O)C2)c(C)c1` (stereo not shown) [Example 54, 6-(2,4-dimethylphenyl)-2-(5-fluoropyrimidin-2-yl)-5,6,7,8-tetrahydrophthalazin-1(2H)-one] the figure was less than 500 nM; with `Cc1ccc(C2CCc3c(cnn(-c4ncc(C(F)(F)F)cn4)c3=O)C2)c(C)c1` (stereo not shown) [Example 55, 6-(2,4-dimethylphenyl)-2-(5-(trifluoromethyl)pyrimidin-2-yl)-5,6,7,8-tetrahydrophthalazin-1(2H)-one], less than 500 nM.
